Results from patent publication US20250243488A1, “METHODS OF MODULATING PROGRANULIN EXPRESSION USING ANTISENSE OLIGONUCLEOTIDES TARGETING REGULATORY RNAS” (Camp4 Therapeutics Corporation, priority 2022, published 2025).
Oligonucleotides are written 5' to 3', each unit as a sugar letter and its base; * is a phosphorothioate linkage, no mark a phosphodiester; rarer units and linkages stand in square brackets, end groups in braces. Plain capitals give the bases only. e = 2'-O-(2-methoxyethyl) (MOE); l = locked nucleic acid (LNA); [5mC] = 5-methylcytosine

Test system: mGrn mRNA
Assay: mGrn mRNA qPCR in Neuro2a cells transfected with ASOs
Type: cell-based, mouse
Settings: for mGRN mRNA FC: Table 14, 100 nM, 48 hours, normalized to sNTC3; for 40 nM FC (mGrn mRNA) / 80 nM FC (mGrn mRNA) / 160 nM FC (mGrn mRNA): transfection
Protocol: 57 ASOs targeting the Grn promoter (− strand) were screened in Neuro2a cells. Neuro2a cells were transfected with 100 nM of each of the ASOs listed in Table 14 and cells were harvested 48 hours later for Grn mRNA quantification using qPCR. Housekeeping genes for normalization were Gapdh and Ppia. Relative Grn mRNA levels were normalized to mRNA extracted from cells treated with sNTC3 (steric nontargeting control).
Next, 26 ASOs based on parent ASOs CO-3544 and CO-3595 were designed with different modifications and base walking. Neuro2a cells were transfected with either […] or 160 nM of each of the ASOs listed in Table 15, and cells were harvested 48 hours later for mGrn mRNA quantification using qPCR. As controls, cells were treated with sNTC3 or no ASO. Housekeeping genes for normalization were Gapdh and Ppia. Relative Grn mRNA levels were normalized to mRNA extracted from cells treated with sNTC3.
CO-3544 was modified to include PO/PS bonds and the efficacy in upregulating mGrn mRNA was determined.
Similarly, CO-3595 was modified to include varying PO/PS internucleotide bonds and the efficacy of these ASOs in upregulating mGrn mRNA was determined in Neuro2A cells.

CO-3554: ASO targeting the Grn promoter (− strand) (antisense eG*eG*e[5mC]*eT*e[5mC]*eT*eT*eT*e[5mC]*eT*e[5mC]*eT*eT*eT*e[5mC]*eG*eG*eA*e[5mC]*eG)
mGRN mRNA FC (Neuro2a): 1.2 FC

CO-3575: ASO targeting the Grn promoter (− strand) (antisense eG*eT*eA*eA*eA*e[5mC]*eG*eA*e[5mC]*e[5mC]*eT*eT*eG*eA*eA*e[5mC]*eG*e[5mC]*eG*eT)
mGRN mRNA FC (Neuro2a): 1.2 FC

CO-3578: ASO targeting the Grn promoter (− strand) (antisense eT*eT*e[5mC]*e[5mC]*eA*eA*e[5mC]*eT*eG*eG*eT*eT*eT*e[5mC]*eG*eA*eG*eT*e[5mC]*e[5mC])
mGRN mRNA FC (Neuro2a): 1.0 FC

CO-3548: ASO targeting the Grn promoter (− strand) (antisense e[5mC]*eA*e[5mC]*eT*eT*eT*eT*e[5mC]*e[5mC]*e[5mC]*e[5mC]*e[5mC]*eG*e[5mC]*eT*eG*e[5mC]*e[5mC]*eT*e[5mC])
mGRN mRNA FC (Neuro2a): 1.5 FC

CO-5305: CO-3595 modified to include varying PO/PS internucleotide bonds (antisense e[5mC]*e[5mC]*eT*eG*eA*eA*e[5mC]eTeGeTeAeTeGeGe[5mC]eTeG*eA*e[5mC]*e[5mC])
40 nM FC (mGrn mRNA) (Table 16, Neuro2A): 1.2 FC
80 nM FC (mGrn mRNA) (Table 16, Neuro2A): 1.4 FC
160 nM FC (mGrn mRNA) (Table 16, Neuro2A): 1.6 FC

CO-3564: ASO targeting the Grn promoter (− strand) (antisense eA*e[5mC]*eG*e[5mC]*eA*eG*eG*eT*eA*eG*eG*eA*eG*eG*eA*e[5mC]*e[5mC]*e[5mC]*eT*e[5mC])
mGRN mRNA FC (Neuro2a): 1.1 FC

CO-5297: CO-3544 modified to include PO/PS bonds (antisense eG*eT*eTe[5mC]eTe[5mC]e[5mC]e[5mC]eTeAeGe[5mC]eTeG*eT*eG*eT*eA*eG*eT)
40 nM FC (mGrn mRNA) (Table 15, Neuro2a): 1.0 FC
80 nM FC (mGrn mRNA) (Table 15, Neuro2a): 1.1 FC
160 nM FC (mGrn mRNA) (Table 15, Neuro2a): 1.2 FC

CO-5310: CO-3595 modified to include varying PO/PS internucleotide bonds (antisense e[5mC]*e[5mC]*eTeGeAeAe[5mC]eTeGeTeAeTeGeG*e[5mC]*eT*eG*eA*e[5mC]*e[5mC])
40 nM FC (mGrn mRNA) (Table 16, Neuro2A): 1.1 FC
80 nM FC (mGrn mRNA) (Table 16, Neuro2A): 1.1 FC
160 nM FC (mGrn mRNA) (Table 16, Neuro2A): 1.3 FC

CO-5290: CO-3544 modified to include PO/PS bonds (antisense eG*eT*eTe[5mC]eTe[5mC]e[5mC]e[5mC]eTeAeGe[5mC]eTeGeTeGeT*eA*eG*eT)
40 nM FC (mGrn mRNA) (Table 15, Neuro2a): 1.1 FC
80 nM FC (mGrn mRNA) (Table 15, Neuro2a): 1.0 FC
160 nM FC (mGrn mRNA) (Table 15, Neuro2a): 1.0 FC

CO-5306: CO-3595 modified to include varying PO/PS internucleotide bonds (antisense e[5mC]*e[5mC]*eT*eG*eA*eA*e[5mC]*eT*eGeTeAeTeGeGe[5mC]eTeG*eA*e[5mC]*e[5mC])
40 nM FC (mGrn mRNA) (Table 16, Neuro2A): 1.2 FC
80 nM FC (mGrn mRNA) (Table 16, Neuro2A): 1.0 FC
160 nM FC (mGrn mRNA) (Table 16, Neuro2A): 1.3 FC

CO-5313: CO-3595 modified to include varying PO/PS internucleotide bonds (antisense e[5mC]*e[5mC]*eTeGeAeAe[5mC]eT*eG*eT*eA*eT*eG*eG*e[5mC]*eT*eG*eA*e[5mC]*e[5mC])
40 nM FC (mGrn mRNA) (Table 16, Neuro2A): 1.3 FC
80 nM FC (mGrn mRNA) (Table 16, Neuro2A): 1.4 FC
160 nM FC (mGrn mRNA) (Table 16, Neuro2A): 1.5 FC

CO-3592: ASO targeting the Grn promoter (− strand) (antisense eG*eA*eA*eA*e[5mC]*e[5mC]*e[5mC]*e[5mC]*eT*eT*e[5mC]*e[5mC]*eA*eT*e[5mC]*eT*e[5mC]*eG*eA*e[5mC])
mGRN mRNA FC (Neuro2a): 1.2 FC

CO-3556: ASO targeting the Grn promoter (− strand) (antisense eA*eG*eG*eA*e[5mC]*eA*eG*eG*eA*eA*e[5mC]*e[5mC]*eA*e[5mC]*e[5mC]*e[5mC]*e[5mC]*eA*e[5mC]*eT)
mGRN mRNA FC (Neuro2a): 1.3 FC

CO-4082: ASO based on parent ASOs CO-3544 and CO-3595, different modifications and base walking (antisense eG*eT*eT*e[5mC]*eT*l[5mC]*e[5mC]*e[5mC]*lT*eA*eG*l[5mC]*eT*eG*lT*eG*eT*eA*eG*eT)
40 nM FC (mGrn mRNA) (Table 15, Neuro2a): 1.4 FC
80 nM FC (mGrn mRNA) (Table 15, Neuro2a): 1.6 FC
160 nM FC (mGrn mRNA) (Table 15, Neuro2a): 1.4 FC

CO-3583: ASO targeting the Grn promoter (− strand) (antisense eT*e[5mC]*e[5mC]*e[5mC]*e[5mC]*e[5mC]*e[5mC]*eA*eG*eT*eT*eT*eG*eA*eG*e[5mC]*e[5mC]*eA*eA*eT)
mGRN mRNA FC (Neuro2a): 1.2 FC

CO-5311: CO-3595 modified to include varying PO/PS internucleotide bonds (antisense e[5mC]*e[5mC]*eTeGeAeAe[5mC]eTeGeTeAeT*eG*eG*e[5mC]*eT*eG*eA*e[5mC]*e[5mC])
40 nM FC (mGrn mRNA) (Table 16, Neuro2A): 1.5 FC
80 nM FC (mGrn mRNA) (Table 16, Neuro2A): 1.7 FC
160 nM FC (mGrn mRNA) (Table 16, Neuro2A): 1.7 FC

CO-3565: ASO targeting the Grn promoter (− strand) (antisense eG*eA*eG*e[5mC]*eT*eG*eA*e[5mC]*e[5mC]*eG*e[5mC]*e[5mC]*eA*eG*eA*eT*eG*e[5mC]*e[5mC]*eT)
mGRN mRNA FC (Neuro2a): 1.6 FC

CO-5293: CO-3544 modified to include PO/PS bonds (antisense GTTCTCCCTAGCTGTGTAGT; 2'-MOE, mixed PS/PO, 5-methylcytosine; listed as RNA; modified_base 1..9: mod_base = OTHER; note = Phosphorothioate linkage; modified_base 17..20: mod_base = OTHER; modified_base 1..20: mod_base = OTHER; note = 2'-O-(2-methoxyethyl) ribonucleotide; modified_base 4)
40 nM FC (mGrn mRNA) (Table 15, Neuro2a): 1.1 FC
80 nM FC (mGrn mRNA) (Table 15, Neuro2a): 1.0 FC
160 nM FC (mGrn mRNA) (Table 15, Neuro2a): 1.1 FC

CO-3581: ASO targeting the Grn promoter (− strand) (antisense e[5mC]*eG*e[5mC]*e[5mC]*e[5mC]*eT*eT*eG*eA*eA*e[5mC]*e[5mC]*eT*eT*eT*eA*eT*eT*eA*eG)
mGRN mRNA FC (Neuro2a): 1.1 FC

CO-3589: ASO targeting the Grn promoter (− strand) (antisense eT*eT*eT*e[5mC]*eA*eA*e[5mC]*e[5mC]*e[5mC]*eT*eT*eG*e[5mC]*eT*eA*eG*eA*eG*eG*e[5mC])
mGRN mRNA FC (Neuro2a): 1.3 FC

CO-3574: ASO targeting the Grn promoter (− strand) (antisense eG*e[5mC]*eT*e[5mC]*eT*e[5mC]*e[5mC]*eT*eA*eA*e[5mC]*eT*eG*eT*eG*eG*eG*eT*eG*e[5mC])
mGRN mRNA FC (Neuro2a): 1.3 FC

CO-3587: ASO targeting the Grn promoter (− strand) (antisense eT*eA*e[5mC]*e[5mC]*e[5mC]*eA*eA*eG*eG*eA*eA*eA*eG*eG*eA*eT*eT*e[5mC]*eA*e[5mC])
mGRN mRNA FC (Neuro2a): 1.9 FC

CO-3572: ASO targeting the Grn promoter (− strand) (antisense eG*e[5mC]*e[5mC]*eG*e[5mC]*e[5mC]*eA*eG*eA*eA*e[5mC]*e[5mC]*e[5mC]*eA*eA*eA*e[5mC]*e[5mC]*eA*eG)
mGRN mRNA FC (Neuro2a): 1.3 FC

CO-3558: ASO targeting the Grn promoter (− strand) (antisense eT*e[5mC]*e[5mC]*e[5mC]*e[5mC]*e[5mC]*e[5mC]*e[5mC]*eA*eA*eT*eA*eA*eG*eA*eG*eG*e[5mC]*eT*eT)
mGRN mRNA FC (Neuro2a): 1.2 FC
